Literature values in US12083128B2, “Use of medications with neuroprotective properties to prevent or reduce the risk of ischemia-reperfusion injury in a subject” (priority 2015, dated 2024).
Read-outs that look alike come from different tables or passages of the source.

Legend:
[1] = system: retinal gangion cells; conditions: in vitro; cited from earlier work
[2] = system: retinal gangion cells; conditions: in vivo, animals; cited from earlier work
[3] = system: optic nerve blood flow; conditions: animal models; cited from earlier work
[4] = system: endothelin 1 induced ischemic retinal injury; conditions: daily topical administration, animals; cited from earlier work
[5] = intravitreal injections for AMD, 49 eyes followed for 12 months; cited from earlier work

For `CC(C)OC(=O)CCC/C=C\C[C@@H]1[C@@H](/C=C/C(F)(F)COc2ccccc2)[C@H](O)C[C@@H]1O` [tafluprost], the “protection of retinal ganglion cells from apoptosis” value [1] is listed as “protects retinal gangion cells from apoptosis”, the “protection of retinal ganglion cells from apoptosis” value [2] is listed as “protects retinal gangion cells from apoptosis” and the “optic nerve blood flow” value [3] is listed as “improved optic nerve blood flow”. For the same compound, the “RNFL thickness in treated eyes” value [4] was “thicker in treated eyes” and the “protection against endothelin 1 induced ischemic retinal injury” value [4] was “protective”.

For Ranibizumab, the RNFL thinning [5] is listed as “caused significant RNFL thinning”.
